Experimental findings from patent US20160237106A1 (priority 2015, published 2016) are described below.

The test system of data set [1] is Ebola virus. Kind of data set: microbe, parasite or virus in culture. In kind it is cell-based. The note with it: Zaire ebolavirus, Vero C1008.
Data set [2] is described as follows: in vitro. Conditions: African green monkey.

Usually EC50 stands for the concentration giving half of the maximal effect. With `C[C@H](NP(=O)(OC[C@@]1(N=[N+]=[N-])O[C@@H](n2ccc(=O)[nH]c2=O)[C@H](O)[C@@H]1O)Oc1cccc2ccccc12)C(=O)OCc1ccccc1` (stereo partly drawn) [Compound I-6, 4′-Azidouridine-5′-(O-1-naphthyl-N-(S)-1-(benzyloxycarbonyl)ethyl phosphoramidate], in data set [1], the EC50 was < 20 µM. The CC50 in data set [2] was > 50 µM.
As for `[N-]=[N+]=N[C@]1(CO)O[C@@H](n2ccc(N)nc2=O)[C@H](F)[C@@H]1O` [Compound I-17, 4′-Azido-2′-deoxy-2′-fluorocytidine], the EC50 in data set [1] was < 20 µM. Moreover, the CC50 in data set [2] was > 50 µM.
For the molecule `[N-]=[N+]=N[C@]1(CO)O[C@@H](n2cnc3c(=O)[nH]c(N)nc32)[C@H](F)[C@@H]1O` [Compound I-47, 4′-Azido-2′-deoxy-2′-fluoroguanosine], in data set [1], the EC50 was < 20 µM. The CC50 in data set [2] was > 50 µM.
The like results for `[N-]=[N+]=N[C@]1(CO)O[C@@H](n2cnc3c(=O)[nH]c(N)nc32)[C@H](O)[C@@H]1O` [Compound I-48, 4′-Azidoguanosine] were, in that order, < 50 µM and > 50 µM.
